# According to PubChem BioAssay AID248 (DTP/NCI, 2004):
# Inconclusive results and toxic doses are left out.
# Test system: L1210 leukemia ip in BDF1 mice, survival T/C
# Assay: NCI In Vivo Anticancer Drug Screen. Data for tumor model L1210 Leukemia (intraperitoneal) in B6D2F1 (BDF1) mice
# Conditions: endpoint: mean survival time, higher = longer survival
# Summary of the method: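 Transplanted-tumor mice were given test agent; controls received vehicle only. Survival readings from the two groups were divided (treated over control).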
# [1] = dose: 100.0 mg/kg/injection, schedule: Q01DX001 (ip), vehicle: carboxymethylcellulose (CMC)
# [2] = dose: 200.0 mg/kg/injection, schedule: Q01DX001 (ip), vehicle: carboxymethylcellulose (CMC)
# [3] = dose: 400.0 mg/kg/injection, schedule: Q01DX001 (ip), vehicle: carboxymethylcellulose (CMC)
# [4] = dose: 100.0 mg/kg/injection, schedule: Q01DX001 (ip), vehicle: saline
# [5] = dose: 200.0 mg/kg/injection, schedule: Q01DX001 (ip), vehicle: saline
# [6] = dose: 100.0 mg/kg/injection, schedule: Q01DX009 (ip), vehicle: saline with Tween-80
# [7] = dose: 200.0 mg/kg/injection, schedule: Q01DX009 (ip), vehicle: saline with Tween-80
# [8] = dose: 50.0 mg/kg/injection, schedule: Q01DX009 (ip), vehicle: Klucel (hydroxypropylcellulose) (HPC)
# [9] = dose: 100.0 mg/kg/injection, schedule: Q01DX009 (ip), vehicle: Klucel (hydroxypropylcellulose) (HPC)
# [10] = dose: 200.0 mg/kg/injection, schedule: Q01DX009 (ip), vehicle: Klucel (hydroxypropylcellulose) (HPC)
# [11] = dose: 100.0 mg/kg/injection, schedule: Q01DX009 (ip), vehicle: saline
# [12] = dose: 200.0 mg/kg/injection, schedule: Q01DX009 (ip), vehicle: saline
# [13] = dose: 100.0 mg/kg/injection, schedule: Q04DX003 (ip), vehicle: saline with Tween-80
# [14] = dose: 200.0 mg/kg/injection, schedule: Q04DX003 (ip), vehicle: saline with Tween-80
# [15] = dose: 400.0 mg/kg/injection, schedule: Q01DX009 (ip), vehicle: saline with Tween-80
# [16] = dose: 400.0 mg/kg/injection, schedule: Q04DX003 (ip), vehicle: saline with Tween-80
# [17] = dose: 400.0 mg/kg/injection, schedule: Q01DX009 (ip), vehicle: Klucel (hydroxypropylcellulose) (HPC)
# [18] = dose: 100.0 mg/kg/injection, schedule: Q04DX003 (ip), vehicle: Klucel (hydroxypropylcellulose) (HPC)
# [19] = dose: 200.0 mg/kg/injection, schedule: Q04DX003 (ip), vehicle: Klucel (hydroxypropylcellulose) (HPC)
# [20] = dose: 400.0 mg/kg/injection, schedule: Q04DX003 (ip), vehicle: Klucel (hydroxypropylcellulose) (HPC)
smiles,measurement,setting,value
CNc1nc(N)nc(Nc2ccc(I)cc2)c1N=O,T/C,[1],105 % of control
same,T/C,"dose: 100.0 mg/kg/injection, schedule: Q01DX009 (ip), vehicle: acetone",107 % of control
same,T/C,"dose: 100.0 mg/kg/injection, schedule: Q04DX003 (ip), vehicle: acetone",115 % of control
same,T/C,[2],110 % of control
same,T/C,"dose: 200.0 mg/kg/injection, schedule: Q01DX009 (ip), vehicle: acetone",107 % of control
same,T/C,"dose: 200.0 mg/kg/injection, schedule: Q04DX003 (ip), vehicle: acetone",105 % of control
same,T/C,[3],100 % of control
same,T/C,"dose: 400.0 mg/kg/injection, schedule: Q01DX009 (ip), vehicle: acetone",98 % of control
same,T/C,"dose: 400.0 mg/kg/injection, schedule: Q04DX003 (ip), vehicle: acetone",98 % of control
N[n+]1cccc2ccccc21,T/C,[4],93 % of control
same,T/C,"dose: 100.0 mg/kg/injection, schedule: Q04DX003 (ip), vehicle: saline",108 % of control
same,T/C,[5],108 % of control
same,T/C,"dose: 200.0 mg/kg/injection, schedule: Q04DX003 (ip), vehicle: saline",110 % of control
c1ccc2c(C3CO3)c3ccc4ccccc4c3cc2c1 (stereo not given),T/C,"dose: 100.0 mg/kg/injection, schedule: Q04DX002 (ip), vehicle: other",113 % of control
same,T/C,"dose: 200.0 mg/kg/injection, schedule: Q04DX002 (ip), vehicle: other",179 % of control
same,T/C,"dose: 400.0 mg/kg/injection, schedule: Q04DX002 (ip), vehicle: other",120 % of control
Cc1c(/C=N/NC(N)=S)[nH]c(=O)[nH]c1=O,T/C,[4],94 % of control
same,T/C,[5],94 % of control
same,T/C,"dose: 400.0 mg/kg/injection, schedule: Q01DX001 (ip), vehicle: saline",109 % of control
COC(=O)CCC(OC(C)=O)C(=O)c1ccccc1 (stereo not given),T/C,"dose: 50.0 mg/kg/injection, schedule: Q01DX009 (ip), vehicle: saline with Tween-80",91 % of control
same,T/C,[6],94 % of control
same,T/C,[7],88 % of control
CCCCCCCCCCCCSCCSCCCCCCCCCCCC,T/C,[1],93 % of control
same,T/C,[2],86 % of control
same,T/C,[3],102 % of control
CC1CC(=O)C(CN(C)C)C(C)(C)C1 (stereo not given),T/C,"dose: 75.0 mg/kg/injection, schedule: Q01DX001 (ip), vehicle: saline",106 % of control
same,T/C,"dose: 150.0 mg/kg/injection, schedule: Q01DX001 (ip), vehicle: saline",100 % of control
C/C=C1/CN2C3CC1C1(C(=O)OC)C2CC2(c4ccccc4N(C)C32)C1O (stereo not given),T/C,[8],94 % of control
same,T/C,"dose: 100.0 mg/kg/injection, schedule: Q01DX001 (ip), vehicle: Klucel (hydroxypropylcellulose) (HPC)",105 % of control
same,T/C,[9],98 % of control
same,T/C,"dose: 200.0 mg/kg/injection, schedule: Q01DX001 (ip), vehicle: Klucel (hydroxypropylcellulose) (HPC)",97 % of control
same,T/C,[10],96 % of control
same,T/C,"dose: 400.0 mg/kg/injection, schedule: Q01DX001 (ip), vehicle: Klucel (hydroxypropylcellulose) (HPC)",93 % of control
C/C=C/C(=O)OC,T/C,[11],101 % of control
same,T/C,[12],102 % of control
same,T/C,"dose: 400.0 mg/kg/injection, schedule: Q01DX009 (ip), vehicle: saline",104 % of control
Cc1ccc(NC(=O)Nc2ccccc2C(N)=O)cc1,T/C,"dose: 100.0 mg/kg/injection, schedule: Q04DX003 (ip), vehicle: saline sonified",92 % of control
same,T/C,"dose: 200.0 mg/kg/injection, schedule: Q04DX003 (ip), vehicle: saline sonified",92 % of control
same,T/C,"dose: 400.0 mg/kg/injection, schedule: Q04DX003 (ip), vehicle: saline sonified",89 % of control
CN(C)c1ccc(/C=N\N=C/c2ccc(N(C)C)cc2)cc1,T/C,[8],97 % of control
same,T/C,[9],93 % of control
same,T/C,[10],103 % of control
CCC(C)NC(=O)Nc1cccc(Cl)c1C (stereo not given),T/C,[6],86 % of control
same,T/C,[13],90 % of control
same,T/C,[14],95 % of control
same,T/C,[15],89 % of control
same,T/C,[16],103 % of control
c1ccc(OCC2CO2)cc1 (stereo not given),T/C,"dose: 50.0 mg/kg/injection, schedule: Q01DX001 (ip), vehicle: carboxymethylcellulose (CMC)",100 % of control
same,T/C,[1],100 % of control
same,T/C,[6],96 % of control
same,T/C,[13],95 % of control
same,T/C,[2],105 % of control
same,T/C,[7],93 % of control
same,T/C,[14],97 % of control
same,T/C,[3],97 % of control
same,T/C,[15],98 % of control
same,T/C,[16],97 % of control
CCC1CCCCC1=O (stereo not given),T/C,[6],98 % of control
same,T/C,[13],110 % of control
same,T/C,[7],97 % of control
same,T/C,[14],111 % of control
same,T/C,[15],101 % of control
same,T/C,[16],94 % of control
CCOc1ccc(NC(=S)NC2CCCCC2)cc1,T/C,[9],106 % of control
same,T/C,[10],95 % of control
same,T/C,[17],96 % of control
Cc1ccc(S(=O)(=O)N2CC3CC2CN3Cc2ccccc2)cc1 (stereo not given),T/C,[9],97 % of control
same,T/C,[18],98 % of control
same,T/C,[10],97 % of control
same,T/C,[19],101 % of control
same,T/C,[17],92 % of control
same,T/C,[20],106 % of control
O=C(c1ccccn1)c1nnn2ccccc12,T/C,"dose: 100.0 mg/kg/injection, schedule: Q04DX002 (ip), vehicle: saline with Tween-80",91 % of control
same,T/C,"dose: 200.0 mg/kg/injection, schedule: Q04DX002 (ip), vehicle: saline with Tween-80",87 % of control
CC1([N+](=O)[O-])COP(=O)(OP2(=O)OCC(C)([N+](=O)[O-])CO2)OC1 (stereo not given),T/C,[1],108 % of control
same,T/C,[2],101 % of control
same,T/C,[3],103 % of control
CC(=O)N1C(=O)N(Cl)C(=O)C1(C)c1cccs1 (stereo not given),T/C,[6],107 % of control
same,T/C,[13],105 % of control
same,T/C,[7],101 % of control
same,T/C,[14],103 % of control
same,T/C,[15],93 % of control
same,T/C,[16],106 % of control
CC(C)C(NCCNC(C(C)C)C(C)C)C(C)C,T/C,"dose: 50.0 mg/kg/injection, schedule: Q01DX009 (ip), vehicle: saline",106 % of control
same,T/C,[11],102 % of control
same,T/C,[12],106 % of control
CC(=O)N1c2ccccc2C(=O)OC1c1ccc2c(c1)CCC2 (stereo not given),T/C,[18],94 % of control
same,T/C,[19],89 % of control
same,T/C,[20],102 % of control
C1OC2CC3CC1C2C3 (stereo not given),T/C,"dose: 10.0 mg/kg/injection, schedule: Q01DX001 (ip), vehicle: acetone",107 % of control
same,T/C,"dose: 20.0 mg/kg/injection, schedule: Q01DX001 (ip), vehicle: acetone",104 % of control
same,T/C,"dose: 40.0 mg/kg/injection, schedule: Q01DX001 (ip), vehicle: acetone",98 % of control
CCC(/C=C\C(C)C1CCC2C3CC=C4CC(OS(=O)(=O)c5ccc(C)cc5)CCC4(C)C3CCC12C)C(C)C (stereo not given),T/C,"dose: 100.0 mg/kg/injection, schedule: Q01DX001 (ip), vehicle: saline with Tween-80",90 % of control
same,T/C,"dose: 200.0 mg/kg/injection, schedule: Q01DX001 (ip), vehicle: saline with Tween-80",90 % of control
same,T/C,"dose: 400.0 mg/kg/injection, schedule: Q01DX001 (ip), vehicle: saline with Tween-80",86 % of control
Cc1ccc(S(=O)(=O)N2CCCC(=O)c3ccccc32)cc1,T/C,[1],107 % of control
same,T/C,[2],100 % of control
same,T/C,[3],102 % of control
CCOC(OCC)c1cc(=O)[nH]c(N)n1,T/C,[9],101 % of control
same,T/C,[10],97 % of control
same,T/C,[17],96 % of control
Cn1c(N)c(N=O)c(=O)n(C)c1=O,T/C,"dose: 9.0 mg/kg/injection, schedule: Q01DX009 (ip), vehicle: saline with Tween-80",103 % of control
same,T/C,"dose: 18.0 mg/kg/injection, schedule: Q01DX009 (ip), vehicle: saline with Tween-80",103 % of control
same,T/C,"dose: 36.0 mg/kg/injection, schedule: Q01DX009 (ip), vehicle: saline with Tween-80",105 % of control
same,T/C,"dose: 72.0 mg/kg/injection, schedule: Q01DX009 (ip), vehicle: saline with Tween-80",97 % of control
same,T/C,"dose: 90.0 mg/kg/injection, schedule: Q01DX009 (ip), vehicle: saline with Tween-80",93 % of control
same,T/C,"dose: 180.0 mg/kg/injection, schedule: Q01DX009 (ip), vehicle: saline with Tween-80",100 % of control
same,T/C,"dose: 360.0 mg/kg/injection, schedule: Q01DX009 (ip), vehicle: saline with Tween-80",98 % of control
same,T/C,"dose: 360.0 mg/kg/injection, schedule: Q04DX003 (ip), vehicle: saline with Tween-80",97 % of control
same,T/C,"dose: 720.0 mg/kg/injection, schedule: Q04DX003 (ip), vehicle: saline with Tween-80",95 % of control
